Assay [1] concerns SNU398 cells. As to the kind of experiment: In vitro proliferation and viability of human HCC cell lines. The settings on record: SNU398, 1, 10, 100 and 1000 nM. The assay is classed as cell-based. Here is the method: FIG. 20D: LC-MS for ATRA on Hepa1-6 (mouse HCC cell line) or SNU398 (human HCC cell line). […] Two independent experiments were performed with at least three replicates per experimental group. Unpaired t test, two-tailed. *, P<0.05; **, P<0.01; ***, P<0.001. […] Cell proliferation was measured by counting live cell numbers at each time point. […] Cell proliferation was measured by counting live cell numbers at each time point.
Cell viability was measured by flow cytometry (FCM) with 7-AAD staining (Y-axis indicates percentage of 7-AAD negative cells).
1×10^4~2×10^5 of Huh7, Huh1, Hepa 1-6, and Hep55 tumor cells were plated in triplicate in 48-well plates or 6-well plates. Viable cell numbers were counted every day for three to four days.

The test system of assay [2] is Hepa 1-6 tumors. Description: Hepa 1-6 tumors in mice. The settings on record: Hepa 1-6 in C57BL6/J mice treated with anti-CD3; i.p., 20 mg/kg every day. The assay is classed as in vivo, mouse. As to the method:
FIGS. 28A-28G: C99 inhibits murine RALDH1 and suppresses murine HCC growth. FIG. 28A: AldeRed assay was performed on Hepa1-6 (murine HCC, left graph) and SNU398 (human HCC, right graph) cells with or without different concentration of C99 (x-axis). Shown is the percentage of AldeRed-positive cells (y-axis) after 24 hours exposure to C99. Murine RALDH1 is sensitive to C99. FIG. 28B: Hepa1-6 cells were treated with different concentrations of C99 in vitro and the number of viable cells were counted at different time points. […] FIG. 28C: C57BL6/J mice were implanted subcutaneously with Hepa1-6 cells and the tumor-bearing mice. To prevent spontaneous rejection of this cell line, mice were treated with anti-CD3. Once the tumors reached around 50 mm^3 size, mice were treated with C86 or C99 (i.p., 20 mg/kg) every day. […] C99, but not C86, suppresses murine HCC growth. Two independent experiments were performed with at least three replicates per experimental group. Unpaired t test, two-tailed. FIG. 28D: Tumors in (FIG. 28C) were harvested at endpoint, single-cell suspension generated, and AldeRed assay was performed along with surface staining with immune cell markers. Shown is the percentage of AldeRed-positive cells in nonleukocytes (CD45 negative, mostly tumor cells) under the different treatment conditions. Two independent experiments were performed with at least three replicates per experimental group. Unpaired t test, two-tailed. FIG. 28E: FCS base frequency of Macrophages (F4/80^+ cells) within CD45^+ leukocytes in tumor tissues from experiment outlined in (FIGS. 28C-28D). Two independent experiments were performed with at least three replicates per experimental group. Unpaired t test, two-tailed. FIG. 28F: Hepa1-6 tumor-bearing NU/J mice were treated with chlodronate liposomes (CloLipo) and/or C86/C99. CloLipo treatment suppresses tumor growth and renders tumors insensitive to C99. Two independent experiments were performed with at least three replicates per experimental group. Unpaired t test, two-tailed. FIG. 28G: The murine fibrosarcoma (FS) cell line was implanted subcutaneously into C57BL6/J mice. Mice were treated with 25 mg/kg of C-99 or vehicle everyday starting one day after tumor cell transplantation. *, P<0.05; **, P<0.01; ***, P<0.001; ns, not significant.
Cultured Huh7, Huh1, Hepa 1-6, Hep55, and FS (as indicated in figure legends) tumor cells were detached using 0.25% trypsin (Gibco, catalog #25200056), washed once with 1×PBS, and counted before implantation. 3~6×10^6 tumor cells were implanted subcutaneously (s.c.) into shaved flanks of recipient mice. Tumor dimensions were measured using a caliper starting at the day indicated in the accompanying figure legend and every two to three days thereafter; volume was calculated by using formula Length*Width^2/2. Tumor volumes of 2,000 mm^3, tumor length of 2 cm or tumor ulceration were used as endpoints for survival analyses.
To deplete T cells, 200 μg of mouse CD3-specific antibody (clone 17A2) was administered i.p. starting three days before tumor implantation and repeated every three to four days until mouse sacrifice. To deplete macrophages, 200 μL of clodronate liposome (CloLipo) or PBS-liposome (CtrlLipo) (both Liposoma) was administered i.p. starting three days prior to tumor implantation and repeated every four days until mouse sacrifice. Macrophage depletion efficacy in spleen and within tumors was confirmed by flow cytometry using canonical macrophage marker F4/80. […]

Assay [3] concerns the target T1, Peptidase, CTSG (Cathepsin G) (Homo sapiens, UniProt P08311).
T1 construct: Eurofins Cerep Panlabs (contract panel)
As to the kind of experiment: Safetyscreen: Cathepsin G. In kind it is biochemical. The settings on record: read-out: % Inh. Peptidase, CTSG (Cathepsin G).

Assay [4] concerns the target T2, Protein Tyrosine Kinase, LCK (Homo sapiens, UniProt P06239).
T2 construct: Eurofins Cerep Panlabs (contract panel)
Description: Safetyscreen: LCK. The assay is classed as biochemical. The note with it: read-out: % Inh. Protein Tyrosine Kinase, LCK.

The target of assay [5] is T3, Androgen (Testosterone) (Homo sapiens, UniProt P10275).
T3 construct: Eurofins Cerep Panlabs (contract panel)
T3 sequence (P10275 whole entry): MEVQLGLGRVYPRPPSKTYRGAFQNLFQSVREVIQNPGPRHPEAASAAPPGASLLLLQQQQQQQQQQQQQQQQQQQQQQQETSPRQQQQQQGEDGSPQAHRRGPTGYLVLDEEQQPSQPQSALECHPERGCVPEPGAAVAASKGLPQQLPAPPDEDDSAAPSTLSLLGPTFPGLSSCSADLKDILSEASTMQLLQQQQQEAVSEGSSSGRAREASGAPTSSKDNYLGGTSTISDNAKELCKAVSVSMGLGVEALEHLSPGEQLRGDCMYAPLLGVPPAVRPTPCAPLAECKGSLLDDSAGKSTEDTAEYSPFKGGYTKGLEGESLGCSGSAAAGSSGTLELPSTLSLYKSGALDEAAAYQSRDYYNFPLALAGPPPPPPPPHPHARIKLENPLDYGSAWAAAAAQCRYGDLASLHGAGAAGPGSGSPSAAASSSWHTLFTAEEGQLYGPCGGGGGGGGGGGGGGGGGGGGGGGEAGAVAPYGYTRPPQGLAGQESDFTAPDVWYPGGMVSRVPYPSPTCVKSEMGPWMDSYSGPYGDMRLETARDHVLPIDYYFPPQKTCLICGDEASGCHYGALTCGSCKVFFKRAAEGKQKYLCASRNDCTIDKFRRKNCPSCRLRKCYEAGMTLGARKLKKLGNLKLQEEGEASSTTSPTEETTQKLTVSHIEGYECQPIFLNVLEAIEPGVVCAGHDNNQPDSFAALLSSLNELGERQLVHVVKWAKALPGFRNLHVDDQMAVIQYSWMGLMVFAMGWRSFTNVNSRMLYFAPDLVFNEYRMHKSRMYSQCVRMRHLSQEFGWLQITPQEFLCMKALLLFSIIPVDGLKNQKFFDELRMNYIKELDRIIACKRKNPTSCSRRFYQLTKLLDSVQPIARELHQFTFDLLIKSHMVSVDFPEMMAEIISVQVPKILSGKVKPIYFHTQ
Description: Safetyscreen: Androgen. The assay is classed as binding. The note with it: read-out: % Inh. Androgen (Testosterone).

The target of assay [6] is T4, Cannabinoid CB2 (Homo sapiens, UniProt P34972).
T4 construct: purchased Eurofins Cereps Panlabs
T4 sequence (P34972 whole entry): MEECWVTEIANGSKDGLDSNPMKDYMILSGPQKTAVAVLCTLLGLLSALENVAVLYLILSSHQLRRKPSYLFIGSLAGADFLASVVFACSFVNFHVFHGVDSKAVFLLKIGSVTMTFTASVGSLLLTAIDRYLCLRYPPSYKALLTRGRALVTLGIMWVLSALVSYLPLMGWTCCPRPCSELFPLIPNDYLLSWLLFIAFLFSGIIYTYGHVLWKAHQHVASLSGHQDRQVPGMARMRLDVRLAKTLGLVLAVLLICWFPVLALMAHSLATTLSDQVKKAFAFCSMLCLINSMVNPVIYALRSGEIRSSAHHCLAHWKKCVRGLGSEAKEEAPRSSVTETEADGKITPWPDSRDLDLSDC
Description: Safetyscreen: CB2. The assay is classed as binding. The note with it: read-out: % Inh. Cannabinoid CB2.

Assay [7] deals with Glutamate, NMDA, Phencyclidine. Description: Safetyscreen: NMDA, Phencyclidine. The assay is classed as binding, rat. The settings on record: 10 μM.
Assay [8] addresses T5, Histamine H2 (Homo sapiens, UniProt P25021).
T5 construct: purchased Eurofins Cereps Panlabs
As to the kind of experiment: Safetyscreen: Histamine H2. The note with it: read-out: % Inh. Histamine H2. In kind it is binding.

Assay [9] deals with T6, Muscarinic M2 (Homo sapiens, UniProt P08172).
T6 construct: Eurofins Cereps Panlabs (contract panel)
T6 sequence (P08172 whole entry): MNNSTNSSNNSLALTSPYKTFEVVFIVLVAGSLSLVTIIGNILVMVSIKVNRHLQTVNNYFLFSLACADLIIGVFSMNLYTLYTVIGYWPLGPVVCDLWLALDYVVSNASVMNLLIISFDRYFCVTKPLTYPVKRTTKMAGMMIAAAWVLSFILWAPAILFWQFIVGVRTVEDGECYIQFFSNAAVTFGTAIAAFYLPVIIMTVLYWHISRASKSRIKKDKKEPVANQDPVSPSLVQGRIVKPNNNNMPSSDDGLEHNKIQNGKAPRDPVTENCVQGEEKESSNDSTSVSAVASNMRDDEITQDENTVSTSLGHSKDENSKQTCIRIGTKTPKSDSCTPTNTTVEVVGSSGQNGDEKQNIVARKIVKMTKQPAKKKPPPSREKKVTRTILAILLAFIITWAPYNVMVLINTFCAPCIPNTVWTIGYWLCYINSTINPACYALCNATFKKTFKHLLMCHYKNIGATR
Description: Safetyscreen: Muscarinic M2. In kind it is binding. The settings on record: read-out: % Inh. Muscarinic M2.

In assay [10] the target is T7, Serotonin (5-Hydroxytryptamine) 5-HT1A (Homo sapiens, UniProt P08908).
T7 construct: Eurofins Cereps Panlabs (contract panel)
T7 sequence (P08908 whole entry): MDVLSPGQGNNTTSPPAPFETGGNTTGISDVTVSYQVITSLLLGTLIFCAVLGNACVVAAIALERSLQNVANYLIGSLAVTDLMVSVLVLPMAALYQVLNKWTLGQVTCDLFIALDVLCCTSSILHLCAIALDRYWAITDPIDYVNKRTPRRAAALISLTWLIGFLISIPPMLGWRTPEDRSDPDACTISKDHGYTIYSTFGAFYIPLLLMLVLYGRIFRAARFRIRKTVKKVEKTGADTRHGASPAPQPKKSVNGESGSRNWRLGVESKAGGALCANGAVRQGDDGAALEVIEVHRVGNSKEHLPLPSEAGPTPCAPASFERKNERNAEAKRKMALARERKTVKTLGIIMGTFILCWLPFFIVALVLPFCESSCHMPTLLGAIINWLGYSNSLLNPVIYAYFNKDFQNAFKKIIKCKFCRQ
Description: Safetyscreen: 5-HT1A. In kind it is binding. The note with it: read-out: % Inh. Serotonin (5-Hydroxytryptamine) 5-HT1A.

Assay [11] deals with Sodium Channel, Site 2. Description: Safetyscreen: Sodium Channel, Site 2. The assay is classed as binding, rat. The settings on record: 10 μM.
Assay [12] addresses T8, Transporter, Norepinephrine (NET) (Homo sapiens, UniProt P23975).
T8 construct: purchased Eurofins Cereps Panlabs
Description: Safetyscreen: NET. In kind it is binding. The settings on record: read-out: % Inh. Transporter, Norepinephrine (NET).

SMILES strings stand for the structures.

T2 sequence (P06239 whole entry): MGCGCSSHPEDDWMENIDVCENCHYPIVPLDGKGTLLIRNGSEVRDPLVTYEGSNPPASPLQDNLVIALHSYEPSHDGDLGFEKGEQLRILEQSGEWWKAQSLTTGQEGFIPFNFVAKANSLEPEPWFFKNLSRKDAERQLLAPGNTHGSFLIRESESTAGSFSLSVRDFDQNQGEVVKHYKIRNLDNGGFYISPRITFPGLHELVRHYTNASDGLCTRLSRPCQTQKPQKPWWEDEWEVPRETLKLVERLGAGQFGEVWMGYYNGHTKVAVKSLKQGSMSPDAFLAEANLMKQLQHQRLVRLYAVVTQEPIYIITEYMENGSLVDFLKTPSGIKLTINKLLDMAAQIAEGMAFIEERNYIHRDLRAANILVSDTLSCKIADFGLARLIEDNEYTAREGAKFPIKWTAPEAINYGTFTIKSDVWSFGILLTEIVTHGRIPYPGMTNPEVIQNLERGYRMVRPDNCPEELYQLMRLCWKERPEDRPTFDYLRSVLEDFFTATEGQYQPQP
T5 sequence (P25021 whole entry): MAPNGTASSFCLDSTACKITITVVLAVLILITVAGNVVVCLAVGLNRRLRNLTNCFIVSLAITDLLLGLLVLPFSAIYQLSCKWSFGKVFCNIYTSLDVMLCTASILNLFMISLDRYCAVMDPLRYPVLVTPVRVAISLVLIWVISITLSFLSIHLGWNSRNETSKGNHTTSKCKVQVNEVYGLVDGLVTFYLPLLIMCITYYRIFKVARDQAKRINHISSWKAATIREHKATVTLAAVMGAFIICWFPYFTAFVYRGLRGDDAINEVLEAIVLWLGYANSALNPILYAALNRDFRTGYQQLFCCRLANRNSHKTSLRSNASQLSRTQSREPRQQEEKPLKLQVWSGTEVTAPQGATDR
T8 sequence (P23975 whole entry): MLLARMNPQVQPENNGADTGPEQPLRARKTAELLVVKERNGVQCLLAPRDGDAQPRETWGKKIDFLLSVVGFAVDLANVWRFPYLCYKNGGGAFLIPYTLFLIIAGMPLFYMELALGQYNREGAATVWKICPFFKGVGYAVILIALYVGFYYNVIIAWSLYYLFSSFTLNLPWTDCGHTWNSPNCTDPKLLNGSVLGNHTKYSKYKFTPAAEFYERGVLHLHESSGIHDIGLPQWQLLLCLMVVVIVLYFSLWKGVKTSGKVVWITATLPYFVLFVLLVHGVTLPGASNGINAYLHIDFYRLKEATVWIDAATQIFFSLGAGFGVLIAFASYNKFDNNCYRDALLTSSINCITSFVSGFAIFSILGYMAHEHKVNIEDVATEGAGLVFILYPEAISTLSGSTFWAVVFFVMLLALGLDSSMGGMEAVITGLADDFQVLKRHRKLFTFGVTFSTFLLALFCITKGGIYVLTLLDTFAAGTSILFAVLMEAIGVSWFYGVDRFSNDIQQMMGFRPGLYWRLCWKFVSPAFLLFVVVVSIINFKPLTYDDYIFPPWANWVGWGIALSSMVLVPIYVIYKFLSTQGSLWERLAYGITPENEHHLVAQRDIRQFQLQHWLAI
T1 sequence (P08311 21-244): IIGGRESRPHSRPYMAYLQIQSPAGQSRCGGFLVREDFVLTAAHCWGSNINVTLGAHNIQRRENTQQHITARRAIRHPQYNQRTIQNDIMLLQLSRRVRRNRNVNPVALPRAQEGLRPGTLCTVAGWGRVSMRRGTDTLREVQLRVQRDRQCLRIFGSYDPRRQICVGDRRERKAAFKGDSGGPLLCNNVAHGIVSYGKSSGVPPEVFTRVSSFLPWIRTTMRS

For the molecule `CS(=O)(=O)N1CCN(C(=O)c2cnc3ccc(F)cc3c2N2CCC(C#N)(c3ccccc3)CC2)CC1` [Compound C-86, 1-(6-fluoro-3-(4-(methylsulfonyl)piperazine-1-carbonyl)quinolin-4-yl)-4-phenylpiperidine-4-carbonitrile], in assay [1], the “HCC cell growth in vitro” value is on record as “did not inhibit HCC cell growth in vitro”. Also, in assay [2], the “tumor growth in vivo” value is “did not suppress”. The inhibition at 10 µM in assay [3] was 0%; in assay [4], 3%; in assay [5] it was 16%; in [6], 21%; in assay [8] it was -3%; in assay [9], 4%. Besides, the figures for the inhibition at 10 µM in assay [10] and in assay [12] were 5% and 35%, respectively. Besides, in assay [7], the “% Inh. Glutamate, NMDA, Phencyclidine” value was 5%. The “% Inh. Sodium Channel, Site 2” value in assay [11] amounted to 21%.

The values are drawn from patent publication US20260248799A1, “COMBINATIONS OF RETINALDEHYDE DEHYDROGENASE 1 (RALDH1) INHIBITORS AND IMMUNOSTIMULATORS AND METHODS USING SAME” (The Trustees of the University of Pennsylvania, priority 2023, published 2026).
